# Data reported in PubChem BioAssay (NCI).
#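 Assay format: 96-well plates, 48-hour exposure. TGI: concentration producing complete growth inhibition.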
# Assays:
# Assay in all cases: NCI tumour cell line growth inhibition, 48 h
# BT-549 breast = tested on: BT-549 breast
# U251 CNS = tested on: U251 CNS
# SF-268 CNS = tested on: SF-268 CNS
# HCC-2998 colon = tested on: HCC-2998 colon
# LOX IMVI melanoma = tested on: LOX IMVI melanoma
# 786-0 renal = tested on: 786-0 renal
# COLO 205 colon = tested on: COLO 205 colon
# NCI-H226 lung = tested on: NCI-H226 lung
# ACHN renal = tested on: ACHN renal
# SNB-75 CNS = tested on: SNB-75 CNS
# UO-31 renal = tested on: UO-31 renal
# NCI-H460 lung = tested on: NCI-H460 lung
# UACC-257 melanoma = tested on: UACC-257 melanoma
# SR leukemia = tested on: SR leukemia
# RPMI-8226 leukemia = tested on: RPMI-8226 leukemia
# SK-MEL-28 melanoma = tested on: SK-MEL-28 melanoma
# TK-10 renal = tested on: TK-10 renal
# KM12 colon = tested on: KM12 colon
# MDA-N = tested on: MDA-N
# NCI-H23 lung = tested on: NCI-H23 lung
# DU-145 prostate = tested on: DU-145 prostate
# UACC-62 melanoma = tested on: UACC-62 melanoma
# OVCAR-4 ovarian = tested on: OVCAR-4 ovarian
# SNB-19 CNS = tested on: SNB-19 CNS
# CAKI-1 renal = tested on: CAKI-1 renal
# HOP-92 NSCLC = tested on: HOP-92 NSCLC
# MDA-MB-435 = tested on: MDA-MB-435
# OVCAR-8 ovarian = tested on: OVCAR-8 ovarian
# CCRF-CEM leukemia = tested on: CCRF-CEM leukemia
# HCT-15 colon = tested on: HCT-15 colon
# HCT-116 colon = tested on: HCT-116 colon
# MDA-MB-231 breast = tested on: MDA-MB-231 breast
# SN12C renal = tested on: SN12C renal
# NCI/ADR-RES ovarian = tested on: NCI/ADR-RES ovarian
# T-47D breast = tested on: T-47D breast
# M14 melanoma = tested on: M14 melanoma
# MOLT-4 leukemia = tested on: MOLT-4 leukemia
# OVCAR-5 ovarian = tested on: OVCAR-5 ovarian
# MCF7 breast = tested on: MCF7 breast
# PC-3 prostate = tested on: PC-3 prostate
# SK-MEL-5 melanoma = tested on: SK-MEL-5 melanoma
# SF-295 CNS = tested on: SF-295 CNS
# HOP-62 NSCLC = tested on: HOP-62 NSCLC
# HL-60(TB) leukemia = tested on: HL-60(TB) leukemia
# A549 NSCLC = tested on: A549 NSCLC
# K-562 leukemia = tested on: K-562 leukemia
# SW-620 colon = tested on: SW-620 colon
# SK-OV-3 ovarian = tested on: SK-OV-3 ovarian
# OVCAR-3 ovarian = tested on: OVCAR-3 ovarian
# HS 578T breast = tested on: HS 578T breast
# IGROV1 ovarian = tested on: IGROV1 ovarian
# RXF 393 renal = tested on: RXF 393 renal
# EKVX NSCLC = tested on: EKVX NSCLC
# NCI-H522 lung = tested on: NCI-H522 lung
# SK-MEL-2 melanoma = tested on: SK-MEL-2 melanoma
# MALME-3M melanoma = tested on: MALME-3M melanoma
# A498 renal = tested on: A498 renal
# HT29 colon = tested on: HT29 colon
# SF-539 CNS = tested on: SF-539 CNS
compound,measurement,setting,value
CC1(C)C(=O)C2(N)CCC1C2 (configuration not stated),TGI,BT-549 breast,> 100 µM
same,TGI,U251 CNS,> 100 µM
same,TGI,SF-268 CNS,> 100 µM
same,TGI,HCC-2998 colon,> 100 µM
same,TGI,LOX IMVI melanoma,> 100 µM
same,TGI,786-0 renal,> 100 µM
same,TGI,COLO 205 colon,> 100 µM
same,TGI,NCI-H226 lung,> 100 µM
same,TGI,ACHN renal,> 100 µM
same,TGI,SNB-75 CNS,> 100 µM
same,TGI,UO-31 renal,> 100 µM
same,TGI,NCI-H460 lung,> 100 µM
same,TGI,UACC-257 melanoma,> 100 µM
same,TGI,SR leukemia,> 100 µM
same,TGI,RPMI-8226 leukemia,> 100 µM
same,TGI,SK-MEL-28 melanoma,> 100 µM
same,TGI,TK-10 renal,> 100 µM
same,TGI,KM12 colon,> 100 µM
same,TGI,MDA-N,> 100 µM
same,TGI,NCI-H23 lung,> 100 µM
same,TGI,DU-145 prostate,> 100 µM
same,TGI,UACC-62 melanoma,> 100 µM
same,TGI,OVCAR-4 ovarian,> 100 µM
same,TGI,SNB-19 CNS,> 100 µM
same,TGI,CAKI-1 renal,> 100 µM
same,TGI,HOP-92 NSCLC,> 100 µM
same,TGI,MDA-MB-435,> 100 µM
same,TGI,OVCAR-8 ovarian,> 100 µM
same,TGI,CCRF-CEM leukemia,> 100 µM
same,TGI,HCT-15 colon,> 100 µM
same,TGI,HCT-116 colon,> 100 µM
same,TGI,MDA-MB-231 breast,> 100 µM
same,TGI,SN12C renal,> 100 µM
same,TGI,NCI/ADR-RES ovarian,> 100 µM
same,TGI,T-47D breast,> 100 µM
COC(=O)CC(c1ccccc1)C(C#N)(OP1(=O)OC(c2ccccc2)C(C)N1C)c1ccccc1 (configuration not stated),TGI,BT-549 breast,> 100 µM
same,TGI,U251 CNS,> 100 µM
same,TGI,M14 melanoma,> 100 µM
same,TGI,SF-268 CNS,> 100 µM
same,TGI,HCC-2998 colon,> 100 µM
same,TGI,MOLT-4 leukemia,64.6 µM
same,TGI,OVCAR-5 ovarian,> 100 µM
same,TGI,MCF7 breast,> 100 µM
same,TGI,LOX IMVI melanoma,> 100 µM
same,TGI,PC-3 prostate,> 100 µM
same,TGI,786-0 renal,> 100 µM
same,TGI,COLO 205 colon,44.6 µM
same,TGI,SK-MEL-5 melanoma,39.8 µM
same,TGI,SF-295 CNS,> 100 µM
same,TGI,ACHN renal,> 100 µM
same,TGI,SNB-75 CNS,> 100 µM
same,TGI,UO-31 renal,> 100 µM
same,TGI,HOP-62 NSCLC,> 100 µM
same,TGI,NCI-H460 lung,> 100 µM
same,TGI,UACC-257 melanoma,> 100 µM
same,TGI,HL-60(TB) leukemia,72.6 µM
same,TGI,A549 NSCLC,> 100 µM
same,TGI,K-562 leukemia,> 100 µM
same,TGI,RPMI-8226 leukemia,> 100 µM
same,TGI,SW-620 colon,> 100 µM
same,TGI,SK-MEL-28 melanoma,> 100 µM
same,TGI,TK-10 renal,> 100 µM
same,TGI,KM12 colon,> 100 µM
same,TGI,MDA-N,> 100 µM
same,TGI,NCI-H23 lung,> 100 µM
same,TGI,SK-OV-3 ovarian,> 100 µM
same,TGI,DU-145 prostate,> 100 µM
same,TGI,OVCAR-3 ovarian,> 100 µM
same,TGI,UACC-62 melanoma,> 100 µM
same,TGI,OVCAR-4 ovarian,> 100 µM
same,TGI,SNB-19 CNS,> 100 µM
same,TGI,CAKI-1 renal,> 100 µM
same,TGI,HOP-92 NSCLC,> 100 µM
same,TGI,MDA-MB-435,> 100 µM
same,TGI,HS 578T breast,> 100 µM
same,TGI,OVCAR-8 ovarian,> 100 µM
same,TGI,IGROV1 ovarian,> 100 µM
same,TGI,RXF 393 renal,> 100 µM
same,TGI,CCRF-CEM leukemia,> 100 µM
same,TGI,EKVX NSCLC,> 100 µM
same,TGI,HCT-15 colon,> 100 µM
same,TGI,NCI-H522 lung,> 100 µM
same,TGI,SK-MEL-2 melanoma,92.6 µM
same,TGI,MALME-3M melanoma,> 100 µM
same,TGI,HCT-116 colon,> 100 µM
same,TGI,MDA-MB-231 breast,> 100 µM
same,TGI,SN12C renal,> 100 µM
same,TGI,NCI/ADR-RES ovarian,> 100 µM
same,TGI,A498 renal,> 100 µM
same,TGI,T-47D breast,> 100 µM
same,TGI,HT29 colon,> 100 µM
CCOC(=O)C(C(=O)OCC)C(=S)NC1OC(COC(C)=O)C(OC(C)=O)C(OC(C)=O)C1OC(C)=O (configuration not stated),TGI,BT-549 breast,> 100 µM
same,TGI,U251 CNS,> 100 µM
same,TGI,M14 melanoma,> 100 µM
same,TGI,SF-268 CNS,> 100 µM
same,TGI,HCC-2998 colon,> 100 µM
same,TGI,MOLT-4 leukemia,> 100 µM
same,TGI,OVCAR-5 ovarian,> 100 µM
same,TGI,MCF7 breast,> 100 µM
same,TGI,LOX IMVI melanoma,> 100 µM
same,TGI,786-0 renal,> 100 µM
same,TGI,COLO 205 colon,> 100 µM
same,TGI,SK-MEL-5 melanoma,> 100 µM
same,TGI,NCI-H226 lung,> 100 µM
same,TGI,SF-295 CNS,> 100 µM
same,TGI,SF-539 CNS,> 100 µM
same,TGI,UO-31 renal,> 100 µM
same,TGI,HOP-62 NSCLC,> 100 µM
same,TGI,NCI-H460 lung,> 100 µM
same,TGI,UACC-257 melanoma,> 100 µM
same,TGI,SR leukemia,> 100 µM
same,TGI,HL-60(TB) leukemia,> 100 µM
same,TGI,A549 NSCLC,> 100 µM
same,TGI,RPMI-8226 leukemia,> 100 µM
same,TGI,SW-620 colon,> 100 µM
same,TGI,SK-MEL-28 melanoma,> 100 µM
same,TGI,KM12 colon,> 100 µM
same,TGI,MDA-N,> 100 µM
same,TGI,NCI-H23 lung,> 100 µM
same,TGI,SK-OV-3 ovarian,> 100 µM
same,TGI,DU-145 prostate,> 100 µM
same,TGI,OVCAR-3 ovarian,> 100 µM
same,TGI,UACC-62 melanoma,> 100 µM
same,TGI,OVCAR-4 ovarian,> 100 µM
same,TGI,SNB-19 CNS,> 100 µM
same,TGI,CAKI-1 renal,> 100 µM
same,TGI,HOP-92 NSCLC,> 100 µM
same,TGI,MDA-MB-435,> 100 µM
same,TGI,HS 578T breast,> 100 µM
same,TGI,OVCAR-8 ovarian,> 100 µM
same,TGI,IGROV1 ovarian,> 100 µM
same,TGI,RXF 393 renal,> 100 µM
same,TGI,CCRF-CEM leukemia,> 100 µM
same,TGI,EKVX NSCLC,> 100 µM
same,TGI,HCT-15 colon,> 100 µM
same,TGI,NCI-H522 lung,> 100 µM
same,TGI,SK-MEL-2 melanoma,> 100 µM
same,TGI,MALME-3M melanoma,> 100 µM
same,TGI,HCT-116 colon,> 100 µM
same,TGI,MDA-MB-231 breast,> 100 µM
same,TGI,SN12C renal,> 100 µM
same,TGI,NCI/ADR-RES ovarian,> 100 µM
same,TGI,A498 renal,> 100 µM
same,TGI,T-47D breast,> 100 µM
same,TGI,HT29 colon,> 100 µM
CCOc1ccnc2c(OC)c(C)c3nc4ccccc4nc3c12,TGI,U251 CNS,> 100 µM
same,TGI,M14 melanoma,> 100 µM
same,TGI,SF-268 CNS,> 100 µM
same,TGI,HCC-2998 colon,> 100 µM
same,TGI,MOLT-4 leukemia,> 100 µM
same,TGI,OVCAR-5 ovarian,> 100 µM
same,TGI,MCF7 breast,> 100 µM
same,TGI,LOX IMVI melanoma,> 100 µM
same,TGI,PC-3 prostate,> 100 µM
same,TGI,786-0 renal,> 100 µM
same,TGI,COLO 205 colon,> 100 µM
same,TGI,SK-MEL-5 melanoma,> 100 µM
same,TGI,NCI-H226 lung,> 100 µM
same,TGI,SF-295 CNS,> 100 µM
same,TGI,SF-539 CNS,> 100 µM
same,TGI,ACHN renal,> 100 µM
same,TGI,SNB-75 CNS,> 100 µM
same,TGI,UO-31 renal,> 100 µM
same,TGI,HOP-62 NSCLC,> 100 µM
same,TGI,NCI-H460 lung,> 100 µM
same,TGI,UACC-257 melanoma,> 100 µM
same,TGI,SR leukemia,> 100 µM
same,TGI,HL-60(TB) leukemia,> 100 µM
same,TGI,A549 NSCLC,> 100 µM
same,TGI,K-562 leukemia,> 100 µM
same,TGI,RPMI-8226 leukemia,> 100 µM
same,TGI,SW-620 colon,> 100 µM
same,TGI,SK-MEL-28 melanoma,> 100 µM
same,TGI,TK-10 renal,> 100 µM
same,TGI,KM12 colon,> 100 µM
same,TGI,MDA-N,> 100 µM
same,TGI,NCI-H23 lung,> 100 µM
same,TGI,SK-OV-3 ovarian,> 100 µM
same,TGI,DU-145 prostate,> 100 µM
same,TGI,OVCAR-3 ovarian,> 100 µM
same,TGI,OVCAR-4 ovarian,> 100 µM
same,TGI,SNB-19 CNS,> 100 µM
same,TGI,CAKI-1 renal,> 100 µM
same,TGI,HOP-92 NSCLC,> 100 µM
same,TGI,MDA-MB-435,> 100 µM
same,TGI,HS 578T breast,> 100 µM
same,TGI,OVCAR-8 ovarian,> 100 µM
same,TGI,IGROV1 ovarian,> 100 µM
same,TGI,RXF 393 renal,> 100 µM
same,TGI,CCRF-CEM leukemia,> 100 µM
same,TGI,EKVX NSCLC,> 100 µM
same,TGI,HCT-15 colon,> 100 µM
same,TGI,NCI-H522 lung,> 100 µM
same,TGI,SK-MEL-2 melanoma,> 100 µM
same,TGI,MALME-3M melanoma,> 100 µM
same,TGI,HCT-116 colon,> 100 µM
same,TGI,MDA-MB-231 breast,> 100 µM
same,TGI,SN12C renal,> 100 µM
same,TGI,NCI/ADR-RES ovarian,> 100 µM
same,TGI,A498 renal,> 100 µM
same,TGI,T-47D breast,67 µM
same,TGI,HT29 colon,> 100 µM
